Measurements as given in PubChem BioAssay (NCI).
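Each compound was tested at five concentrations against cells in 96-well plates for 48 hours. Here, GI50 denotes the concentration required for 50% inhibition of growth. TGI: concentration producing complete growth inhibition.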

Assays:
Assay in all cases: NCI-60 cell line screen, 48 h
DU-145 prostate = tested on: DU-145 prostate
LOX IMVI melanoma = tested on: LOX IMVI melanoma
U251 CNS = tested on: U251 CNS
SW-620 colon = tested on: SW-620 colon
NCI-H226 lung = tested on: NCI-H226 lung
EKVX NSCLC = tested on: EKVX NSCLC
SF-268 CNS = tested on: SF-268 CNS
MDA-MB-231 breast = tested on: MDA-MB-231 breast
CCRF-CEM leukemia = tested on: CCRF-CEM leukemia
PC-3 prostate = tested on: PC-3 prostate
SK-OV-3 ovarian = tested on: SK-OV-3 ovarian
COLO 205 colon = tested on: COLO 205 colon
NCI-H460 lung = tested on: NCI-H460 lung
NCI-H522 lung = tested on: NCI-H522 lung
HCT-116 colon = tested on: HCT-116 colon
HCT-15 colon = tested on: HCT-15 colon
UACC-257 melanoma = tested on: UACC-257 melanoma
TK-10 renal = tested on: TK-10 renal
SF-295 CNS = tested on: SF-295 CNS
OVCAR-3 ovarian = tested on: OVCAR-3 ovarian
OVCAR-4 ovarian = tested on: OVCAR-4 ovarian
SK-MEL-5 melanoma = tested on: SK-MEL-5 melanoma
HT29 colon = tested on: HT29 colon
786-0 renal = tested on: 786-0 renal
KM12 colon = tested on: KM12 colon
MDA-N = tested on: MDA-N
OVCAR-5 ovarian = tested on: OVCAR-5 ovarian
HL-60(TB) leukemia = tested on: HL-60(TB) leukemia
SF-539 CNS = tested on: SF-539 CNS
T-47D breast = tested on: T-47D breast
SNB-19 CNS = tested on: SNB-19 CNS
SK-MEL-28 melanoma = tested on: SK-MEL-28 melanoma
MALME-3M melanoma = tested on: MALME-3M melanoma
NCI-H23 lung = tested on: NCI-H23 lung
HOP-62 NSCLC = tested on: HOP-62 NSCLC
K-562 leukemia = tested on: K-562 leukemia
MCF7 breast = tested on: MCF7 breast
M14 melanoma = tested on: M14 melanoma
HOP-92 NSCLC = tested on: HOP-92 NSCLC
SK-MEL-2 melanoma = tested on: SK-MEL-2 melanoma
CAKI-1 renal = tested on: CAKI-1 renal
A498 renal = tested on: A498 renal
RPMI-8226 leukemia = tested on: RPMI-8226 leukemia
UACC-62 melanoma = tested on: UACC-62 melanoma
A549 NSCLC = tested on: A549 NSCLC
IGROV1 ovarian = tested on: IGROV1 ovarian
HCC-2998 colon = tested on: HCC-2998 colon
RXF 393 renal = tested on: RXF 393 renal
ACHN renal = tested on: ACHN renal
UO-31 renal = tested on: UO-31 renal
OVCAR-8 ovarian = tested on: OVCAR-8 ovarian
MOLT-4 leukemia = tested on: MOLT-4 leukemia
NCI/ADR-RES ovarian = tested on: NCI/ADR-RES ovarian
MDA-MB-435 = tested on: MDA-MB-435
SN12C renal = tested on: SN12C renal
BT-549 breast = tested on: BT-549 breast
SNB-75 CNS = tested on: SNB-75 CNS
SR leukemia = tested on: SR leukemia
HS 578T breast = tested on: HS 578T breast

In the case of `Cc1cn(CC2=NCC(O)CN2)c(=O)[nH]c1=O` (stereo unspecified), the TGI (DU-145 prostate) is reported as > 100 µM, the TGI (LOX IMVI melanoma) is reported as > 100 µM and the TGI (U251 CNS) is reported as > 100 µM. For the same molecule, the TGI (SW-620 colon) was > 100 µM, the TGI (NCI-H226 lung) was > 100 µM and the TGI (EKVX NSCLC) was > 100 µM. The TGI (SF-268 CNS) was > 100 µM, the TGI (MDA-MB-231 breast) was > 100 µM and the TGI (CCRF-CEM leukemia) was > 100 µM. The TGI (PC-3 prostate) was > 100 µM, the TGI (SK-OV-3 ovarian) was > 100 µM and the TGI (COLO 205 colon) was > 100 µM. For the same molecule, the TGI (NCI-H460 lung) was > 100 µM, the TGI (NCI-H522 lung) was > 100 µM and the TGI (HCT-116 colon) was > 100 µM. For the same molecule, the TGI (HCT-15 colon) was > 100 µM, the TGI (UACC-257 melanoma) was > 100 µM and the TGI (TK-10 renal) was > 100 µM. For the same molecule, the TGI (SF-295 CNS) was > 100 µM, the TGI (OVCAR-3 ovarian) was > 100 µM and the TGI (OVCAR-4 ovarian) was > 100 µM. The TGI (SK-MEL-5 melanoma) was > 100 µM, the TGI (HT29 colon) was > 100 µM and the TGI (786-0 renal) was > 100 µM. For the same molecule, the TGI (KM12 colon) was > 100 µM, the TGI (MDA-N) was > 100 µM and the TGI (OVCAR-5 ovarian) was > 100 µM. For the same molecule, the TGI (HL-60(TB) leukemia) was > 100 µM, the TGI (SF-539 CNS) was > 100 µM and the TGI (T-47D breast) was > 100 µM. The TGI (SNB-19 CNS) was > 100 µM, the TGI (SK-MEL-28 melanoma) was > 100 µM and the TGI (MALME-3M melanoma) was > 100 µM. For the same molecule, the TGI (NCI-H23 lung) was > 100 µM, the TGI (HOP-62 NSCLC) was > 100 µM and the TGI (K-562 leukemia) was > 100 µM. The TGI (MCF7 breast) was > 100 µM, the TGI (M14 melanoma) was > 100 µM and the TGI (HOP-92 NSCLC) was > 100 µM. The TGI (SK-MEL-2 melanoma) was > 100 µM, the TGI (CAKI-1 renal) was > 100 µM and the TGI (A498 renal) was > 100 µM. The TGI (RPMI-8226 leukemia) was > 100 µM, the TGI (UACC-62 melanoma) was > 100 µM and the TGI (A549 NSCLC) was > 100 µM. For the same molecule, the TGI (IGROV1 ovarian) was > 100 µM, the TGI (HCC-2998 colon) was > 100 µM and the TGI (RXF 393 renal) was > 100 µM. The TGI (ACHN renal) was > 100 µM, the TGI (UO-31 renal) was > 100 µM and the TGI (OVCAR-8 ovarian) was > 100 µM. The TGI (MOLT-4 leukemia) was > 100 µM, the TGI (NCI/ADR-RES ovarian) was > 100 µM and the TGI (MDA-MB-435) was > 100 µM. The TGI (SN12C renal) was > 100 µM.
For `COc1cc2c(Oc3ccc4[nH]c(C)cc4c3F)ncnc2cc1OCCCN1CCCC1`, the GI50 (DU-145 prostate) was 4.66 µM, the TGI (DU-145 prostate) was 16 µM and the GI50 (LOX IMVI melanoma) was 1.62 µM. The TGI (LOX IMVI melanoma) was 4.31 µM, the GI50 (U251 CNS) was 1.43 µM and the TGI (U251 CNS) was 6.99 µM. It also gave a GI50 (SW-620 colon) of 3.77 µM, a TGI (SW-620 colon) of 14.7 µM and a GI50 (NCI-H226 lung) of 0.675 µM. It also gave a TGI (NCI-H226 lung) of 9.15 µM, a GI50 (EKVX NSCLC) of 6.07 µM and a TGI (EKVX NSCLC) of 22.1 µM. The GI50 (SF-268 CNS) was 4.06 µM, the TGI (SF-268 CNS) was 16.6 µM and the GI50 (MDA-MB-231 breast) was 2.54 µM. It also gave a TGI (MDA-MB-231 breast) of 7.58 µM, a GI50 (CCRF-CEM leukemia) of 3.74 µM and a TGI (CCRF-CEM leukemia) of 16.8 µM. The GI50 (PC-3 prostate) was 4.63 µM, the TGI (PC-3 prostate) was 17.5 µM and the GI50 (SK-OV-3 ovarian) was 5.53 µM. It also gave a TGI (SK-OV-3 ovarian) of 19 µM, a GI50 (COLO 205 colon) of 1.83 µM and a TGI (COLO 205 colon) of 3.58 µM. It also gave a GI50 (NCI-H460 lung) of 3.29 µM, a TGI (NCI-H460 lung) of 11.6 µM and a GI50 (NCI-H522 lung) of 2.33 µM. The TGI (NCI-H522 lung) was 5.99 µM, the GI50 (BT-549 breast) was 2.98 µM and the TGI (BT-549 breast) was 10.8 µM. For the same molecule, the GI50 (HCT-116 colon) was 3.96 µM, the TGI (HCT-116 colon) was 14.7 µM and the GI50 (HCT-15 colon) was 3.16 µM. For the same molecule, the TGI (HCT-15 colon) was 15.2 µM, the GI50 (UACC-257 melanoma) was 1.75 µM and the TGI (UACC-257 melanoma) was 3.53 µM. The GI50 (TK-10 renal) was 1.57 µM, the TGI (TK-10 renal) was 6.98 µM and the GI50 (SF-295 CNS) was 2.81 µM. The TGI (SF-295 CNS) was 13.2 µM, the GI50 (OVCAR-3 ovarian) was 2.25 µM and the TGI (OVCAR-3 ovarian) was 7.56 µM. The GI50 (OVCAR-4 ovarian) was 1.38 µM, the TGI (OVCAR-4 ovarian) was 8.99 µM and the GI50 (SK-MEL-5 melanoma) was 1.62 µM. For the same molecule, the TGI (SK-MEL-5 melanoma) was 3.17 µM, the GI50 (HT29 colon) was 1.7 µM and the TGI (HT29 colon) was 4.09 µM. The GI50 (SNB-75 CNS) was 0.959 µM, the TGI (SNB-75 CNS) was 5.09 µM and the GI50 (786-0 renal) was 3.57 µM. It also gave a TGI (786-0 renal) of 13.3 µM, a GI50 (KM12 colon) of 4.33 µM and a TGI (KM12 colon) of 15.3 µM. For the same molecule, the GI50 (OVCAR-5 ovarian) was 4.72 µM, the TGI (OVCAR-5 ovarian) was 19.5 µM and the GI50 (HL-60(TB) leukemia) was 2.04 µM. The TGI (HL-60(TB) leukemia) was 4.37 µM, the GI50 (SF-539 CNS) was 0.46 µM and the TGI (SF-539 CNS) was 2.47 µM. The GI50 (T-47D breast) was 1.8 µM, the TGI (T-47D breast) was 4.72 µM and the GI50 (SNB-19 CNS) was 6.47 µM. The TGI (SNB-19 CNS) was 22.2 µM, the GI50 (SK-MEL-28 melanoma) was 2.57 µM and the TGI (SK-MEL-28 melanoma) was 6.68 µM. For the same molecule, the GI50 (MALME-3M melanoma) was 2.48 µM, the TGI (MALME-3M melanoma) was 7.02 µM and the GI50 (NCI-H23 lung) was 5.17 µM. It also gave a TGI (NCI-H23 lung) of 22.7 µM, a GI50 (HOP-62 NSCLC) of 2.03 µM and a TGI (HOP-62 NSCLC) of 10.5 µM. For the same molecule, the GI50 (K-562 leukemia) was 2.15 µM, the TGI (K-562 leukemia) was 7.44 µM and the GI50 (SR leukemia) was 3.06 µM. For the same molecule, the TGI (SR leukemia) was 15 µM, the GI50 (MCF7 breast) was 3.79 µM and the TGI (MCF7 breast) was 18.5 µM. The GI50 (M14 melanoma) was 1.88 µM, the TGI (M14 melanoma) was 3.78 µM and the GI50 (HOP-92 NSCLC) was 0.761 µM. For the same molecule, the TGI (HOP-92 NSCLC) was 5.2 µM, the GI50 (SK-MEL-2 melanoma) was 3.84 µM and the TGI (SK-MEL-2 melanoma) was 10.3 µM. For the same molecule, the GI50 (CAKI-1 renal) was 2.79 µM, the TGI (CAKI-1 renal) was 13.9 µM and the GI50 (A498 renal) was 0.129 µM. It also gave a TGI (A498 renal) of 0.72 µM, a GI50 (RPMI-8226 leukemia) of 3.63 µM and a TGI (RPMI-8226 leukemia) of 10.7 µM. It also gave a GI50 (UACC-62 melanoma) of 2.77 µM, a TGI (UACC-62 melanoma) of 6.73 µM and a GI50 (A549 NSCLC) of 3.07 µM. The TGI (A549 NSCLC) was 13 µM, the GI50 (IGROV1 ovarian) was 1.45 µM and the TGI (IGROV1 ovarian) was 14.2 µM. The GI50 (HCC-2998 colon) was 3.77 µM, the TGI (HCC-2998 colon) was 11.8 µM and the GI50 (RXF 393 renal) was 1.07 µM. The TGI (RXF 393 renal) was 3.31 µM, the GI50 (ACHN renal) was 1.96 µM and the TGI (ACHN renal) was 14.9 µM. It also gave a GI50 (UO-31 renal) of 0.544 µM, a TGI (UO-31 renal) of 5.64 µM and a GI50 (OVCAR-8 ovarian) of 3.88 µM. It also gave a TGI (OVCAR-8 ovarian) of 15.6 µM, a GI50 (MOLT-4 leukemia) of 2.55 µM and a TGI (MOLT-4 leukemia) of 13.8 µM. The GI50 (HS 578T breast) was 1.32 µM, the TGI (HS 578T breast) was 6.89 µM and the GI50 (NCI/ADR-RES ovarian) was 9.69 µM. The TGI (NCI/ADR-RES ovarian) was 24.7 µM, the GI50 (MDA-MB-435) was 2.75 µM and the TGI (MDA-MB-435) was 8.98 µM. It also gave a GI50 (SN12C renal) of 3.84 µM and a TGI (SN12C renal) of 19.9 µM.
